Source: ChEMBL document CHEMBL5518238, “Structure-Activity Relationship (SAR) Studies of Novel Monovalent AR/AR-V7 Dual Degraders with Potent Efficacy against Advanced Prostate Cancer” (J Med Chem, 2024)
Active and inactive are the calls of the source. The calls are words filed in the database; no cut-off is given here.

Columns and labels:
CWR22R [1] = assay: cells; format: functional, cell-based; settings: Homo sapiens, 22Rv1, 48 h
Description: Antiproliferative activity against AR/AR-V7 positive human 22Rv1 cells assessed as inhibition of cell growth incubated for 48 hrs by CCK-8 assay

DU-145 = assay: Antiproliferative activity against AR-negative human DU-145 cells assessed as inhibition of cell growth incubated for 48 hrs by CCK-8 assay; format: functional, cell-based; settings: DU-145, 48 h
LNCaP = assay: Antiproliferative activity against human LNCaP cells assessed as inhibition of cell growth incubated for 48 hrs by CCK-8 assay; format: functional, cell-based
[2] = Antiproliferative activity against human L02 cells assessed as inhibition of cell growth incubated for 48 hrs by CCK-8 assay; format: toxicity, cell-based
[3] = Toxicity in NSG mouse xenografted with human 22Rv1 cells assessed as effect on body weight at 30 mg/kg, IG administered once daily for 21 days; format: organism-based, CWR22R; settings: in vivo, po, 504 h, time 21 day
CWR22R [4] = assay: Antitumor activity against human 22Rv1 cells xenografted in NSG mouse assessed as change in tumor volume at 30 mg/kg, IG administered once daily for 21 days; format: functional, organism-based; settings: time 21.0 day

Structure (SMILES)	IC50 (CWR22R [1])	other results
CC1(C)C(=O)N(c2ccc(C#N)c(C(F)(F)F)c2)C(=O)N1CCNc1cccc2cccnc12	> 50 µM	–
CC1(C)C(=O)N(c2ccc(C#N)c(C(F)(F)F)c2)C(=O)N1CCn1cnc(C(F)(F)F)n1	10.3 µM	–
CC1(C)C(=O)N(c2ccc(C#N)c(C(F)(F)F)c2)C(=O)N1CCCNc1cccc2ncccc12	25.7 µM	–
CC1(C)C(=O)N(c2ccc(C#N)c(C(F)(F)F)c2)C(=O)N1CCN(c1ccc2nccnc2c1)c1ccc2nccnc2c1	12.2 µM	–
CC1(C)C(=O)N(c2ccc(C#N)c(C(F)(F)F)c2)C(=O)N1CCNc1cccc2ccncc12	7.8 µM	IC50 (DU-145): > 50 µM
CC1(C)C(=O)N(c2ccc(C#N)c(C(F)(F)F)c2)C(=O)N1CCNc1ccc(C#N)c2ncccc12	2.8 µM	IC50 (DU-145): > 50 µM
CC1(C)C(=O)N(c2ccc(C#N)c(C(F)(F)F)c2)C(=O)N1Cn1cc(Br)cn1	23.2 µM	–
CC1(C)C(=O)N(c2ccc([N+](=O)[O-])c(C(F)(F)F)c2)C(=O)N1CC(=O)NCc1ccccn1	26 µM	–
CC1(C)C(=O)N(c2ccc(C#N)c(C(F)(F)F)c2)C(=O)N1CCNc1ccnc2ccccc12	8.7 µM	–
CC1(C)C(=O)N(c2ccc(C#N)c(C(F)(F)F)c2)C(=O)N1CCN(c1ccc(-c2ccncc2)cc1)c1ccc(-c2ccncc2)cc1	> 50 µM	–
CC1(C)C(=O)N(c2ccc(C#N)c(C(F)(F)F)c2)C(=O)N1CC(=O)Nc1cnc2ccccc2c1	14.6 µM	–
CC1(C)C(=O)N(c2ccc(C#N)c(C(F)(F)F)c2)C(=O)N1CCCn1cc(Br)cn1	2 µM	–
CC1(C)C(=O)N(c2ccc(C#N)c(C(F)(F)F)c2)C(=O)N1CC(=O)Nc1ccc2ncccc2c1	35.8 µM	–
CC1(C)C(=O)N(c2ccc(C#N)c(C(F)(F)F)c2)C(=O)N1CCNc1ccc2ccncc2c1	2.3 µM	IC50 (DU-145): > 50 µM
CC1(C)C(=O)N(c2ccc([N+](=O)[O-])c(C(F)(F)F)c2)C(=O)N1CC(=O)Nc1ccccn1	> 50 µM	–
CC1(C)C(=O)N(c2ccc(C#N)c(C(F)(F)F)c2)C(=O)N1CCNc1cccc2ccccc12	19.5 µM	–
CC1(C)C(=O)N(c2ccc(C#N)c(C(F)(F)F)c2)C(=O)N1CCNc1ccc2ccccc2c1	> 50 µM	–
C[C@]12CC[C@H](O)CC1=CC[C@@H]1[C@@H]2CC[C@]2(C)C(n3cnc4ccccc43)=CC[C@@H]12 [GALETERONE]	11.6 µM	IC50 (LNCaP): 2 µM; IC50 at 48 h [2]: > 100 µM
CC1(C)C(=O)N(c2ccc(C#N)c(C(F)(F)F)c2)C(=O)N1Cn1cc(F)cn1	14.5 µM	–
CC1(C)C(=O)N(c2ccc(C#N)c(C(F)(F)F)c2)C(=O)N1CCN(c1ccc2ncncc2c1)c1ccc2ncncc2c1	15 µM	–

Structure (SMILES)	IC50 (CWR22R [1])	other results
CC1(C)C(=O)N(c2ccc(C#N)c(C(F)(F)F)c2)C(=O)N1CCNc1ccc2cnccc2c1	5.1 µM	IC50 (DU-145): 33 µM
CC1(C)C(=O)N(c2ccc(C#N)c(C(F)(F)F)c2)C(=O)N1CCNc1ccc2ccccc2n1	11.7 µM	–
CC1(C)C(=O)N(c2ccc(C#N)c(C(F)(F)F)c2)C(=O)N1CC(=O)Nc1ccccn1	17 µM	–
CC1(C)C(=O)N(c2ccc(C#N)c(C(F)(F)F)c2)C(=O)N1CC(=O)Nc1ccnc2ccccc12	13.8 µM	–
CC1(C)C(=O)N(c2ccc(C#N)c(C(F)(F)F)c2)C(=O)N1CCN(c1ccc2cccnc2c1)c1ccc2cccnc2c1	> 50 µM	–
CC1(C)C(=O)N(c2ccc(C#N)c(C(F)(F)F)c2)C(=O)N1CCNc1ccc([N+](=O)[O-])c2ncccc12	3.1 µM	IC50 (DU-145): > 50 µM
CC1(C)C(=O)N(c2ccc(C#N)c(C(F)(F)F)c2)C(=O)N1CCNc1cccnc1	11.9 µM	–
CC1(C)C(=O)N(c2ccc(C#N)c(C(F)(F)F)c2)C(=O)N1CCn1cc(F)cn1	7.9 µM	–
C[C@]12CC[C@H](O)CC1=CC[C@@H]1[C@@H]2CC[C@]2(C)C(c3cccnc3)=CC[C@@H]12 [ABIRATERONE]	–	Activity [3]: Non-Toxic; Activity (CWR22R [4]): Active
CC1(C)C(=O)N(c2ccc(C#N)c(C(F)(F)F)c2)C(=O)N1CCNc1ccccn1	13.1 µM	–
CC1(C)C(=O)N(c2ccc(C#N)c(C(F)(F)F)c2)C(=O)N1CC(=O)NCc1cccnc1	22.1 µM	–
CC1(C)C(=O)N(c2ccc(C#N)c(C(F)(F)F)c2)C(=O)N1CCNc1ccc2cccnc2c1	2.2 µM	–
Cc1ccc(NCCN2C(=O)N(c3ccc(C#N)c(C(F)(F)F)c3)C(=O)C2(C)C)c2cccnc12	9.8 µM	IC50 (DU-145): > 50 µM
CC1(C)C(=O)N(c2ccc(C#N)c(C(F)(F)F)c2)C(=O)N1CCNc1ccc2ncccc2c1	5.4 µM	–
CC1(C)C(=O)N(c2ccc([N+](=O)[O-])c(C(F)(F)F)c2)C(=O)N1CC(=O)Nc1cccnc1	> 50 µM	–
CC1(C)C(=O)N(c2ccc(C#N)c(C(F)(F)F)c2)C(=O)N1Cn1cc(C(F)(F)F)cn1	11.3 µM	–
CC(C)(c1ccc(OC[C@H](O)CO)cc1)c1ccc(OC[C@H](O)CCl)cc1	40.4 µM	–
CC1(C)C(=O)N(c2ccc(C#N)c(C(F)(F)F)c2)C(=O)N1CCNc1cnccn1	10.6 µM	–
CC1(C)C(=O)N(c2ccc(C#N)c(C(F)(F)F)c2)C(=O)N1CCCn1cc(C(F)(F)F)cn1	19.8 µM	–
CC1(C)C(=O)N(c2ccc(C#N)c(C(F)(F)F)c2)C(=O)N1CCCNc1ccc2ccncc2c1	22 µM	–

Structure (SMILES)	IC50 (CWR22R [1])	other results
CC1(C)C(=O)N(c2ccc(C#N)c(C(F)(F)F)c2)C(=O)N1CCCNc1ccc2ncccc2c1	27.3 µM	–
CC1(C)C(=O)N(c2ccc(C#N)c(C(F)(F)F)c2)C(=O)N1CCNc1cncnc1	43.9 µM	–
CC1(C)C(=O)N(c2ccc(C#N)c(C(F)(F)F)c2)C(=O)N1CCNc1ncccn1	24.9 µM	–
CC1(C)C(=O)N(c2ccc(C#N)c(C(F)(F)F)c2)C(=O)N1CCCn1ccc2cc(F)ccc21	13.6 µM	–
CC1(C)C(=O)N(c2ccc(C#N)c(C(F)(F)F)c2)C(=O)N1CC(=O)Nc1cccc2cccnc12	23.5 µM	–
CC1(C)C(=O)N(c2ccc(C#N)c(C(F)(F)F)c2)C(=O)N1CCn1cc(Br)cn1	46.3 µM	–
CC1(C)C(=O)N(c2ccc(C#N)c(C(F)(F)F)c2)C(=O)N1CCCNc1cccc2ccncc12	21.8 µM	–
CC1(C)C(=O)N(c2ccc([N+](=O)[O-])c(C(F)(F)F)c2)C(=O)N1CC(=O)NCc1cccnc1	> 50 µM	–
CC1(C)C(=O)N(c2ccc(C#N)c(C(F)(F)F)c2)C(=O)N1CCN(c1ccc2ncccc2c1)c1ccc2ncccc2c1	6.8 µM	–
CC1(C)C(=O)N(c2ccc(C#N)c(C(F)(F)F)c2)C(=O)N1CCn1cc(C(F)(F)F)cn1	8.9 µM	–
CC1(C)C(=O)N(c2ccc(C#N)c(C(F)(F)F)c2)C(=O)N1CCCn1cc(F)cn1	3.7 µM	–
CC1(C)C(=O)N(c2ccc(C#N)c(C(F)(F)F)c2)C(=O)N1CCNc1cnc2ccccc2c1	49.5 µM	–
CC1(C)C(=O)N(c2ccc(C#N)c(C(F)(F)F)c2)C(=O)N1CCNc1cccc2ncccc12	1.3 µM	–
CC1(C)C(=O)N(c2ccc(C#N)c(C(F)(F)F)c2)C(=O)N1CC(=O)Nc1cccnc1	10.8 µM	–
CC1(C)C(=O)N(c2ccc(C#N)c(C(F)(F)F)c2)C(=O)N1CC(=O)Nc1cccc2ncccc12	24.9 µM	–
N#Cc1ccc(O[C@H]2CC[C@H](NC(=O)c3ccc(N4CCC(CN5CCN(c6cc7c(cc6F)C(=O)N(C6CCC(=O)NC6=O)C7=O)CC5)CC4)nn3)CC2)cc1Cl (stereo not given in full) [BAVDEGALUTAMIDE]	3.9 µM	–
CC1(C)C(=O)N(c2ccc(C#N)c(C(F)(F)F)c2)C(=O)N1CC(=O)NCc1ccccn1	33.7 µM	–
CNC(=O)c1ccc(N2C(=S)N(c3ccc(C#N)c(C(F)(F)F)c3)C(=O)C2(C)C)cc1F [ENZALUTAMIDE]	15.6 µM	Activity [3]: Non-Toxic; Activity (CWR22R [4]): Active
Cc1ccc(NCCCN2C(=O)N(c3ccc(C#N)c(C(F)(F)F)c3)C(=O)C2(C)C)c2cccnc12	36.8 µM	–
